We go through 25 compounds from patent US8022206B2 (OSI Pharmaceuticals, LLC, priority 2008, dated 2011).

The structures appear in SMILES notation.

The target of experiment [1] is RON (human) (Homo sapiens, UniProt Q04912). Description: RON (human) AlphaScreen kinase assay, Km of ATP. The class given is biochemical. The settings on record: AlphaScreen, Km of ATP; read-out: RON biochemical IC50. The procedure, abridged:
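Detection used PT66 AlphaScreen beads added in Tris pH 7.5/NaCl/EDTA/BSA buffer, read after 1 h incubation. Vehicle-only DMSO wells served as controls.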
(Alpha assays give light when donor and acceptor beads are brought close together.)

Experiment [2] concerns the target MET (human) (Homo sapiens, UniProt P08581). The experiment is described as follows: MET (human) AlphaScreen kinase assay, Km of ATP. The class given is biochemical. The settings on record: AlphaScreen, Km of ATP; read-out: Met biochemical IC50. The gist of the method: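 Human MET at lot-optimised concentration in 50 mM Tris pH 7.4 buffer with 1 mM DTT, compound at 1% DMSO final; enzyme starts the reaction, 60 min at RT.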

Chain of RON (human) (Q04912 25-1400): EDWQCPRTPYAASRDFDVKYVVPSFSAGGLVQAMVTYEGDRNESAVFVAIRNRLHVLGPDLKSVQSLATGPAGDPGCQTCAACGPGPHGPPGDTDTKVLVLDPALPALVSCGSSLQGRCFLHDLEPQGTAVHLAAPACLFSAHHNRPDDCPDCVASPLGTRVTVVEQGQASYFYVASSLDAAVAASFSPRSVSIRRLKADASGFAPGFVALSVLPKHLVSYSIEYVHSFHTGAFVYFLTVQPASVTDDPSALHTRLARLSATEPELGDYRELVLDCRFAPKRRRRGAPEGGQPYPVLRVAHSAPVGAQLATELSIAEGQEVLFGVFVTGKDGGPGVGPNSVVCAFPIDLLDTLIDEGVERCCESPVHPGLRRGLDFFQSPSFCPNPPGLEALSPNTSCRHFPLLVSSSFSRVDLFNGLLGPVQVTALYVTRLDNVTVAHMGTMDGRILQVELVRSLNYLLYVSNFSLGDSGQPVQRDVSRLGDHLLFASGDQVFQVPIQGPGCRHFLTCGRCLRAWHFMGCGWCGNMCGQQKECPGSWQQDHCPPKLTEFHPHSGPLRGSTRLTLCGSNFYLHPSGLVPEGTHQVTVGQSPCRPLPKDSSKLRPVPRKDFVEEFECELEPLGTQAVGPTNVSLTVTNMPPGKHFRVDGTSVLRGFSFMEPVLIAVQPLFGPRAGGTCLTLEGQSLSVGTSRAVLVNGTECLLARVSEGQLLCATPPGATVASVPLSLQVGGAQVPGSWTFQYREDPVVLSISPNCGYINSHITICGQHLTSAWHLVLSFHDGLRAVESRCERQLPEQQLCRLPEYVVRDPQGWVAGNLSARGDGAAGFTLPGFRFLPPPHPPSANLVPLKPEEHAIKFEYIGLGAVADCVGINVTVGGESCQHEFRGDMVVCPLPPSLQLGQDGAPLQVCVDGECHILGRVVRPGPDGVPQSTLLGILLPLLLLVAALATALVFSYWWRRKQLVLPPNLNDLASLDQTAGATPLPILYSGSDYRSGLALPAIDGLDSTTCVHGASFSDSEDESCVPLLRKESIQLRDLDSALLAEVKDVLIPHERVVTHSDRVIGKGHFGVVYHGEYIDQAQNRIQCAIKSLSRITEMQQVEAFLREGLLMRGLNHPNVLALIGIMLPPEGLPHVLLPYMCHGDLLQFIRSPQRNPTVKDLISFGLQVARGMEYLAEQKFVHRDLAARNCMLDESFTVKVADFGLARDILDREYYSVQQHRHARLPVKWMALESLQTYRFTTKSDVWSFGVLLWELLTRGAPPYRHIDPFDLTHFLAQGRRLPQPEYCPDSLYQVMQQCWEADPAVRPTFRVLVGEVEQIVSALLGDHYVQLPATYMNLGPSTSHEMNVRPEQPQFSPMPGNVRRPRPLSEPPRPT
Chain of MET (human) (P08581 25-1390): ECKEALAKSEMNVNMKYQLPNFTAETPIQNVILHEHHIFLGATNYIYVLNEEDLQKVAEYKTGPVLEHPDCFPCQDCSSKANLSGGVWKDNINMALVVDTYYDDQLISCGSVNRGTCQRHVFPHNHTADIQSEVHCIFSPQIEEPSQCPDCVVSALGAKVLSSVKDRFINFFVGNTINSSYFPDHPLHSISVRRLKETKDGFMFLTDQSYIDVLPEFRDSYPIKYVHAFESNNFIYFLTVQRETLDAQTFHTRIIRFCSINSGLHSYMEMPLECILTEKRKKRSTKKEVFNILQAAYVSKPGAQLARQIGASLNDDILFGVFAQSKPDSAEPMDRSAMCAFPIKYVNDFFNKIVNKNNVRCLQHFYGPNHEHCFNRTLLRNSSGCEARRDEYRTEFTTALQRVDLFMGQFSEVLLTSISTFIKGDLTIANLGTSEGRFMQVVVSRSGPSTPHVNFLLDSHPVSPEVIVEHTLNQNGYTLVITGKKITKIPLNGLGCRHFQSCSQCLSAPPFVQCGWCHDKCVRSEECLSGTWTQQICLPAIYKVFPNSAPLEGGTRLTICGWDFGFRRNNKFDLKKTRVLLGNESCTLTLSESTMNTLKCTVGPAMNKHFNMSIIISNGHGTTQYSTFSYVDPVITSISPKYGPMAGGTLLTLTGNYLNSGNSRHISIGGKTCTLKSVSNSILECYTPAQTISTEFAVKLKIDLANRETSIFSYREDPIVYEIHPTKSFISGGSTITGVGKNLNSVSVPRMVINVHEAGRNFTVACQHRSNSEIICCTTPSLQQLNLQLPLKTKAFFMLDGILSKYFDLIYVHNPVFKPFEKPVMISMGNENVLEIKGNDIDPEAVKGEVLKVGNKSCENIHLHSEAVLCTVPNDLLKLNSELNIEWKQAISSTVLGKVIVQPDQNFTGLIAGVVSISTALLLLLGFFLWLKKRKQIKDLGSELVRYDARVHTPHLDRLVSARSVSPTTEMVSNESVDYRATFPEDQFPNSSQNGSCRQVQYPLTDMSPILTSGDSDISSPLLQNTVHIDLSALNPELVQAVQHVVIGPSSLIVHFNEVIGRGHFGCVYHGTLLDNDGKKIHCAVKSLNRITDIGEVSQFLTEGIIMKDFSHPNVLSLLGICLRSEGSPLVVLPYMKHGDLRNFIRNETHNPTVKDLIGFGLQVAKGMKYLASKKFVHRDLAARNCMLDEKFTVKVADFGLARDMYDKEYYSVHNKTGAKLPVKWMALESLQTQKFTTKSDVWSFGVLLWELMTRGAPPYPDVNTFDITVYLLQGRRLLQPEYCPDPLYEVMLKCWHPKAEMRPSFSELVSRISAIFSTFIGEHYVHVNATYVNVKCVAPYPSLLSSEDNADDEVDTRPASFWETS

Regarding `C[C@@H](Oc1c(N)ncc2c(C3=CCN(/C(N)=N\C#N)CC3)coc12)c1c(Cl)ccc(F)c1Cl` [Example 197, 4-{6-Amino-7-[(R)-1-(2,6-dichloro-3-fluorophenyl)ethoxy]-furo[3,2-c]pyridin-3-yl}-N-cyano-3,6-dihydro-2H-pyridine-1-carboxamidine], the IC50 in experiment [1] and in experiment [2] was 500 to 5000 nM in each case.

With `CN/C(=N/C#N)N1CC=C(c2coc3c(O[C@H](C)c4c(Cl)ccc(F)c4Cl)c(N)ncc23)CC1` [Example 198, 4-{6-Amino-7-[(R)-1-(2,6-dichloro-3-fluorophenyl)ethoxy]-furo[3,2-c]pyridin-3-yl}-N-cyano-N′-methyl-3,6-dihydro-2H-pyridine-1-carboxamidine], the IC50 in experiment [1] and in experiment [2] was 500 to 5000 nM in each case.

For the compound `C[C@@H](Oc1c(N)ncc2c(C3=CCN(CC(=O)N(C)C)CC3)coc12)c1c(Cl)ccc(F)c1Cl` [Example 200, 2-(4-{6-Amino-7-[(R)-1-(2,6-dichloro-3-fluorophenyl)ethoxy]-furo[3,2-c]pyridin-3-yl}-3,6-dihydro-2H-pyridin-1-yl)-N,N-dimethylacetamide], the IC50 (as a rule, the concentration that gives 50% inhibition) in experiment [1] was 500 to 5000 nM; in experiment [2], below 500 nM.

Turning to `CNC(=O)CN1CC=C(c2coc3c(O[C@H](C)c4c(Cl)ccc(F)c4Cl)c(N)ncc23)CC1` [Example 201, 2-(4-{6-Amino-7-[(R)-1-(2,6-dichloro-3-fluorophenyl)ethoxy]-furo[3,2-c]pyridin-3-yl}-3,6-dihydro-2H-pyridin-1-yl)-N-methylacetamide], the IC50 was 500 to 5000 nM in experiment [1] and below 500 nM in experiment [2].

As for `C[C@@H](Oc1c(N)ncc2c(C3=CCN(CC(N)=O)CC3)coc12)c1c(Cl)ccc(F)c1Cl` [Example 202, 2-(4-{6-Amino-7-[(R)-1-(2,6-dichloro-3-fluorophenyl)ethoxy]-furo[3,2-c]pyridin-3-yl}-3,6-dihydro-2H-pyridin-1-yl)-acetamide], the IC50 in experiment [1] was 500 to 5000 nM; in experiment [2], below 500 nM.

Regarding `C[C@@H](Oc1c(N)ncc2c(C3=CCN(CC(=O)N4CCC(O)C4)CC3)coc12)c1c(Cl)ccc(F)c1Cl` (stereo partly drawn) [Example 203, 2-(4-{6-Amino-7-[(R)-1-(2,6-dichloro-3-fluorophenyl)ethoxy]-furo[3,2-e]pyridin-3-yl}-3,6-dihydro-2H-pyridin-1-yl)-1-(3-hydroxypyrrolidin-1-yl)ethanone], the IC50 is 500 to 5000 nM in experiment [1] and below 500 nM in experiment [2].

For the compound `C[C@@H](Oc1c(N)ncc2c(C3=CCN(c4c(N)c(=O)c4=O)CC3)coc12)c1c(Cl)ccc(F)c1Cl` [Example 205, 3-Amino-4-(4-{6-amino-7-[(R)-1-(2,6-dichloro-3-fluorophenyl)ethoxy]-furo[3,2-c]pyridin-3-yl}-3,6-dihydro-2H-pyridin-1-yl)-cyclobut-3-ene-1,2-dione], the IC50 in experiment [1] is 500 to 5000 nM; in experiment [2], below 500 nM.

Regarding `C[C@@H](Oc1c(N)ncc2c(-c3ccc(C(=O)O)s3)coc12)c1c(Cl)ccc(F)c1Cl` [Example 206, 5-{6-Amino-7-[(R)-1-(2,6-dichloro-3-fluorophenyl)ethoxy]-furo[3,2-c]pyridin-3-yl}-thiophene-2-carboxylic acid], the results for the IC50 in experiment [1] and in experiment [2] were 500 to 5000 nM and below 500 nM, respectively.

Take `CCNC(=O)c1ccc(-c2coc3c(O[C@H](C)c4c(Cl)ccc(F)c4Cl)c(N)ncc23)s1` [Example 207, 5-{6-Amino-7-[(R)-1-(2,6-dichloro-3-fluorophenyl)ethoxy]-furo[3,2-c]pyridin-3-yl}-thiophene-2-carboxylic acid ethyl amide]: the IC50 in experiment [1] and in experiment [2] was 500 to 5000 nM in each case.

Regarding `C[C@@H](Oc1c(N)ncc2c(-c3ccc(C(=O)N(C)C)s3)coc12)c1c(Cl)ccc(F)c1Cl` [Example 208, 5-{6-Amino-7-[(R)-1-(2,6-dichloro-3-fluorophenyl)ethoxy]-furo[3,2-c]pyridin-3-yl}-thiophene-2-carboxylic acid dimethyl amide], the IC50 in experiment [1] and in experiment [2] was 500 to 5000 nM throughout.

For the compound `C[C@@H](Oc1c(N)ncc2c(-c3ccc(C(N)=O)s3)coc12)c1c(Cl)ccc(F)c1Cl` [Example 209, 5-{6-Amino-7-[(R)-1-(2,6-dichloro-3-fluorophenyl)ethoxy]-furo[3,2-c]pyridin-3-yl}-thiophene-2-carboxamide], the IC50 in experiment [1] and in experiment [2] was 500 to 5000 nM each time.

On to `C[C@@H](Oc1c(N)ncc2c(-c3ccc(C=O)s3)coc12)c1c(Cl)ccc(F)c1Cl` [Example 210, 5-{6-Amino-7-[(R)-1-(2,6-dichloro-3-fluorophenyl)ethoxy]-furo[3,2-c]pyridin-3-yl}-thiophene-2-carbaldehyde], for which the IC50 in experiment [1] and in experiment [2] was 500 to 5000 nM each time.

In the case of `C[C@@H](Oc1c(N)ncc2c(-c3ccc(CO)s3)coc12)c1c(Cl)ccc(F)c1Cl` [Example 212, (5-{6-Amino-7-[(R)-1-(2,6-dichloro-3-fluorophenyl)ethoxy]-furo[3,2-c]pyridin-3-yl}-thiophen-2-yl)methanol], the IC50 in experiment [1] and in experiment [2] was 500 to 5000 nM each time.

In the case of `C[C@@H](Oc1c(N)ncc2c(-c3ccc(CN4CCCC4)s3)coc12)c1c(Cl)ccc(F)c1Cl` [Example 213, 7-[(R)-1-(2,6-Dichloro-3-fluorophenyl)ethoxy]-3-(5-pyrrolidin-1-ylmethylthiophen-2-yl)-furo[3,2-c]pyridin-6-ylamine], the 50% inhibitory concentration (IC50) in experiment [1] and in experiment [2] was below 500 nM each time.

`C[C@@H](Oc1c(N)ncc2c(-c3ccc(CN(C)C)s3)coc12)c1c(Cl)ccc(F)c1Cl` [Example 214, 7-[(R)-1-(2,6-Dichloro-3-fluorophenyl)ethoxy]-3-(5-dimethyl-aminomethylthiophen-2-yl)-furo[3,2-c]pyridin-6-ylamine]: the half-inhibitory concentration (IC50) in experiment [1] and in experiment [2] was below 500 nM in each case.

For the compound `C[C@@H](Oc1c(N)ncc2c(-c3ccc(CN4CCCCC4)s3)coc12)c1c(Cl)ccc(F)c1Cl` [Example 215, 7-[(R)-1-(2,6-Dichloro-3-fluorophenyl)ethoxy]-3-(5-piperidin-1-ylmethylthiophen-2-yl)-furo[3,2-c]pyridin-6-ylamine], the IC50 in experiment [1] and in experiment [2] was below 500 nM throughout.

Turning to `C[C@@H](Oc1c(N)ncc2c(-c3ccc(CN4CCC(O)CC4)s3)coc12)c1c(Cl)ccc(F)c1Cl` [Example 216, 1-(5-{6-Amino-7-[(R)-1-(2,6-dichloro-3-fluorophenyl)ethoxy]-furo[3,2-c]pyridin-3-yl}-thiophen-2-ylmethyl)piperidin-4-ol], the half-inhibitory concentration (IC50) in experiment [1] and in experiment [2] was below 500 nM each time.

For the compound `C[C@@H](Oc1c(N)ncc2c(-c3ccc(CN4CCNCC4)s3)coc12)c1c(Cl)ccc(F)c1Cl` [Example 217, 7-[(R)-1-(2,6-Dichloro-3-fluorophenyl)ethoxy]-3-(5-piperazin-1-ylmethylthiophen-2-yl)-furo[3,2-c]pyridin-6-ylamine], the IC50 in experiment [1] and in experiment [2] was below 500 nM each time.

Regarding `C[C@@H](Oc1c(N)ncc2c(-c3ccc(CN4CCN(C)CC4)s3)coc12)c1c(Cl)ccc(F)c1Cl` [Example 218, 7-[(R)-1-(2,6-Dichloro-3-fluorophenyl)ethoxy]-3-[5-(4-methylpiperazin-1-ylmethyl)-thiophen-2-yl]furo[3,2-c]pyridin-6-ylamine], the half-inhibitory concentration (IC50) in experiment [1] and in experiment [2] was below 500 nM in each case.

As to `C[C@@H](Oc1c(N)ncc2c(-c3ccc(CN4CCSCC4)s3)coc12)c1c(Cl)ccc(F)c1Cl` [Example 219, 7-[(R)-1-(2,6-Dichloro-3-fluorophenyl)ethoxy]-3-(5-thiomorpholin-4-ylmethylthiophen-2-yl)furo[3,2-c]pyridin-6-ylamine], the IC50 in experiment [1] and in experiment [2] was 500 to 5000 nM throughout.

In the case of `C[C@@H](Oc1c(N)ncc2c(-c3ccc(CN4CCC4)s3)coc12)c1c(Cl)ccc(F)c1Cl` [Example 220, 3-(5-Azetidin-1-ylmethylthiophen-2-yl)-7-[(R)-1-(2,6-dichloro-3-fluorophenyl)ethoxy]furo[3,2-c]pyridin-6-ylamine], the half-maximal inhibitory concentration (IC50) in experiment [1] and in experiment [2] was below 500 nM each time.

`CCN1CC2CC1CN2C(=O)N1CC=C(c2coc3c(O[C@H](C)c4c(Cl)ccc(F)c4Cl)c(N)ncc23)CC1` (stereo partly drawn) [Example 222, (4-{6-Amino-7-[(R)-1-(2,6-dichloro-3-fluorophenyl)ethoxy]-furo[3,2-c]pyridin-3-yl}-3,6-dihydro-2H-pyridin-1-yl)-(5-ethyl-2,5-diazabicyclo[2.2.1]hept-2-yl)-methanone]: the IC50 in experiment [1] and in experiment [2] was below 500 nM each time.

With `C[C@@H](Oc1c(N)ncc2c(C3=CCN(C(=O)N4CC5CC4CO5)CC3)coc12)c1c(Cl)ccc(F)c1Cl` (stereo partly drawn) [Example 223, (4-{6-Amino-7-[(R)-1-(2,6-dichloro-3-fluorophenyl)ethoxy]-furo[3,2-c]pyridin-3-yl}-3,6-dihydro-2H-pyridin-1-yl)-(2-oxa-5-azabicyclo[2.2.1]hept-5-yl)methanone], the IC50 in experiment [1] and in experiment [2] was 500 to 5000 nM each time.

As to `C[C@@H](Oc1c(N)ncc2c(C3=CCN(C(=O)N4CCN(C)CC4)CC3)coc12)c1c(Cl)ccc(F)c1Cl` [Example 225, (4-{6-Amino-7-[(R)-1-(2,6-dichloro-3-fluorophenyl)-ethoxy]-furo[3,2-c]pyridin-3-yl}-3,6-dihydro-2H-pyridin-1-yl)-(4-methylpiperazin-1-yl)-methanone], the IC50 in experiment [1] and in experiment [2] was below 500 nM each time.

As for `C[C@@H](O)C(=O)N1CC=C(c2coc3c(O[C@H](C)c4c(Cl)ccc(F)c4Cl)c(N)ncc23)CC1` [Example 226, (R)-1-(4-{6-Amino-7-[(R)-1-(2,6-dichloro-3-fluorophenyl)ethoxy]-furo[3,2-c]pyridin-3-yl}-3,6-dihydro-2H-pyridin-1-yl)-2-hydroxypropan-1-one], the IC50 in experiment [1] and in experiment [2] was below 500 nM each time.
